Assay [1] addresses T1, human calcitonin receptor (hCTR) (Homo sapiens, UniProt P30988).
T1 construct: expressed in transfected cells
T1 sequence (P30988 25-474): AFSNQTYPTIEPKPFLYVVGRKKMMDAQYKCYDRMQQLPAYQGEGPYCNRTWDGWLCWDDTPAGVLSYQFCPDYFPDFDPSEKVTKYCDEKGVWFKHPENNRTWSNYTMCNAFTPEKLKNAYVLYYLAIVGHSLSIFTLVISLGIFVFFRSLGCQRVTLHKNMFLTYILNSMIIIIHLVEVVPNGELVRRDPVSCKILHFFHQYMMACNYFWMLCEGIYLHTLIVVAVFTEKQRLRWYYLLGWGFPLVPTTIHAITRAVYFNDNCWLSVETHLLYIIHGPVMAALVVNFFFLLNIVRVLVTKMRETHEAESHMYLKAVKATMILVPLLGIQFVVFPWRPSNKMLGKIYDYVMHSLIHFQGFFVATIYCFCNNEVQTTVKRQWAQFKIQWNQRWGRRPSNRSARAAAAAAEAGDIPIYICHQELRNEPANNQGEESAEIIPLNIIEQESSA
The assay can be described thus: cAMP production in 1321N1 cells with stable recombinant expression of human calcitonin receptor (hCTR). The format is cell-based. The conditions noted are these: cAMP, 1321N1 cells, assay buffer with 0.1% BSA; read-out: EC50 (pM) hCTR. The gist of the method: (§1)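 EC50 values come from 4-parameter logistic fits of HTRF cAMP signal, normalised to maximal calcitonin or amylin effect. Peptides were tested in duplicate for 30 min at RT in IBMX-containing (0.5 mM) BSA/HEPES buffer pH 7.4 on stable 1321N1 (human CTR, AMYR3) or HEK (rat CTR, AMYR3) lines.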
A general note: cAMP levels reflect the balance of adenylyl cyclase and phosphodiesterase activity.

Assay [2] concerns the target T2, human amylin receptor (calcitonin receptor co-expressed with receptor activity modifying protein, RAMP3) (hAMYR3) (Homo sapiens, UniProt O60896+P30988).
T2 construct: expressed in transfected cells
T2 sequence (P30988 25-474): T1 sequence (P30988 25-474)
T2 sequence (O60896 24-148 partner): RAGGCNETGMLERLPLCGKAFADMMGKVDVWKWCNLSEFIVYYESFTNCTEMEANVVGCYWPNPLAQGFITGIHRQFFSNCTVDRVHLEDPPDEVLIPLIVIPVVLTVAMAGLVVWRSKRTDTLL
The assay can be described thus: cAMP production in 1321N1 cells with stable recombinant expression of human amylin receptor (hAMYR3). It is filed as cell-based. The conditions noted are these: for Ratio (selectivity hAMYR vs hCTR, ratio of EC50 values at the two receptors): EC50 hCTR / EC50 hAMYR3; for EC50: cAMP, 1321N1 cells, assay buffer with 0.1% BSA, read-out: EC50 (pM) hAMYR3. A digest of the protocol: as §1

Consider five molecules from US20240067693A1, “POLYPEPTIDES AND USES THEREOF” (MEDIMMUNE LIMITED, priority 2020, published 2024).

Numbered stars: 1 amine (or outer) side, 2 acyl side, 3 side chain; on linkers, the order of the positions; unused ones are H or OH. Bridge positions count the residues as written; N and C are the ends. Square brackets hold non-standard residues; d marks the D form. Side chains are listed from the residue outwards. Peptide text beside a SMILES is read from it. * marks the point of attachment. C18 diacid = O=C(O)CCCCCCCCCCCCCCCCC(=O)*; γGlu = O=C(O)[C@H](CCC(=O)[*:2])N[*:1]; Dab = NCC[C@H](N)C(=O)O; Aib = CC(C)(N)C(=O)O

As to `CC[C@H](C)[C@H](NC(=O)[C@@H]1CCCN1C(=O)CNC(=O)[C@H](Cc1ccccc1)NC(=O)[C@H](CC(N)=O)NC(=O)C(C)(C)NC(=O)[C@H](CO)NC(=O)[C@H](CO)NC(=O)[C@H](Cc1c[nH]cn1)NC(=O)[C@@H](NC(=O)[C@H](CC(C)C)NC(=O)[C@H](Cc1ccccc1)NC(=O)[C@H](CC(N)=O)NC(=O)[C@H](C)NC(=O)[C@H](CC(C)C)NC(=O)[C@H](CCCNC(=N)N)NC(=O)[C@H](CCC(N)=O)NC(=O)[C@@H](NC(=O)[C@H](C)NC(=O)[C@@H]1CSSC[C@H](NC(=O)[C@H](CCCCN)NC(=O)[C@@H](N)CCCCNC(=O)CC[C@H](NC(=O)CCCCCCCCCCCCCCCCC(=O)O)C(=O)O)C(=O)N[C@@H](CC(N)=O)C(=O)N[C@@H]([C@@H](C)O)C(=O)N[C@@H](C)C(=O)N[C@@H]([C@@H](C)O)C(=O)N1)[C@@H](C)O)C(C)C)C(=O)N[C@@H](CC(C)C)C(=O)N1CCC[C@H]1C(=O)N1CCC[C@H]1C(=O)N[C@H](C(=O)N[C@@H](CC(N)=O)C(=O)N[C@H](C(=O)NCC(=O)NC(C)(C)C(=O)N[C@@H](CC(N)=O)C(=O)N[C@H](C(=O)N[C@@H](Cc1ccc(O)cc1)C(N)=O)[C@@H](C)O)C(C)C)[C@@H](C)O` [Peptide 84, K(γE-C18diacid)K[CNTATC]ATQRLANFLVHSS(Aib)NFGPILPPTNVG(Aib)NTY-amide] (H-K([γGlu-C18 diacid])KCNTATCATQRLANFLVHSS[Aib]NFGPILPPTNVG[Aib]NTY-NH2; disulfide 3-8; N-terminus assumed), the half-maximal effective concentration (EC50) in assay [1] was determined as 401 pM. Further, in assay [2], the “Ratio (selectivity hAMYR vs hCTR, ratio of EC50 values at the two receptors)” value is listed as 3 and the EC50 came out at 118 pM.
In the case of `CC[C@H](C)[C@H](NC(=O)[C@@H]1CCCN1C(=O)CNC(=O)[C@H](Cc1ccccc1)NC(=O)[C@H](CC(N)=O)NC(=O)CNC(=O)[C@H](CO)NC(=O)[C@H](CO)NC(=O)[C@H](Cc1c[nH]cn1)NC(=O)C(C)(C)NC(=O)[C@H](CC(C)C)NC(=O)[C@H](Cc1ccccc1)NC(=O)[C@H](CC(N)=O)NC(=O)[C@H](C)NC(=O)[C@H](CC(C)C)NC(=O)[C@H](CCCNC(=N)N)NC(=O)[C@H](CCC(N)=O)NC(=O)[C@@H](NC(=O)[C@H](C)NC(=O)[C@@H]1CSSC[C@H](NC(=O)[C@H](CCCCN)NC(=O)[C@@H](N)CCCCNC(=O)CC[C@H](NC(=O)CCCCCCCCCCCCCCCCC(=O)O)C(=O)O)C(=O)N[C@@H](CC(N)=O)C(=O)N[C@@H]([C@@H](C)O)C(=O)N[C@@H](C)C(=O)N[C@@H]([C@@H](C)O)C(=O)N1)[C@@H](C)O)C(=O)N[C@@H](CC(C)C)C(=O)N1CCC[C@H]1C(=O)N1CCC[C@H]1C(=O)N[C@H](C(=O)N[C@@H](CC(N)=O)C(=O)N[C@H](C(=O)NCC(=O)N[C@@H](CO)C(=O)N[C@@H](CC(N)=O)C(=O)N[C@H](C(=O)N[C@@H](Cc1ccc(O)cc1)C(N)=O)[C@@H](C)O)C(C)C)[C@@H](C)O` [Peptide 154] (H-K([γGlu-C18 diacid])KCNTATCATQRLANFL[Aib]HSSGNFGPILPPTNVGSNTY-NH2; disulfide 3-8; N-terminus assumed), in assay [1], the concentration for a half-maximal effect (EC50) was 1540 pM. Moreover, in assay [2], the “Ratio (selectivity hAMYR vs hCTR, ratio of EC50 values at the two receptors)” value came out at 2.7 and the EC50 stood at 574 pM.
The like results for `CC[C@H](C)[C@H](NC(=O)[C@@H]1CCCN1C(=O)CNC(=O)[C@H](Cc1ccccc1)NC(=O)[C@H](CC(N)=O)NC(=O)[C@H](CC(N)=O)NC(=O)[C@H](CO)NC(=O)[C@H](CO)NC(=O)[C@H](Cc1c[nH]cn1)NC(=O)C(C)(C)NC(=O)[C@H](CC(C)C)NC(=O)[C@H](Cc1ccccc1)NC(=O)[C@H](CC(N)=O)NC(=O)[C@H](C)NC(=O)[C@H](CC(C)C)NC(=O)[C@H](CCCNC(=N)N)NC(=O)[C@H](CCC(N)=O)NC(=O)[C@@H](NC(=O)[C@H](C)NC(=O)[C@@H]1CSSC[C@H](NC(=O)[C@H](CCCCN)NC(=O)[C@@H](N)CCCCNC(=O)CC[C@H](NC(=O)CCCCCCCCCCCCCCCCC(=O)O)C(=O)O)C(=O)N[C@@H](CC(N)=O)C(=O)N[C@@H]([C@@H](C)O)C(=O)N[C@@H](C)C(=O)N[C@@H]([C@@H](C)O)C(=O)N1)[C@@H](C)O)C(=O)N[C@@H](CC(C)C)C(=O)N1CCC[C@H]1C(=O)N1CCC[C@H]1C(=O)N[C@H](C(=O)N[C@@H](CC(N)=O)C(=O)N[C@H](C(=O)NCC(=O)N[C@@H](CO)C(=O)N[C@@H](CC(N)=O)C(=O)N[C@H](C(=O)N1CCC[C@H]1C(N)=O)[C@@H](C)O)C(C)C)[C@@H](C)O` [Peptide 136] (H-K([γGlu-C18 diacid])KCNTATCATQRLANFL[Aib]HSSNNFGPILPPTNVGSNTP-NH2; disulfide 3-8; N-terminus assumed) were, in that order, 101 pM, 0.8 and 122 pM.
The like results for `CC[C@H](C)[C@H](NC(=O)[C@@H]1CCCN1C(=O)CNC(=O)[C@H](Cc1ccccc1)NC(=O)[C@H](CC(N)=O)NC(=O)[C@H](CCN)NC(=O)[C@H](CO)NC(=O)[C@H](CO)NC(=O)[C@H](Cc1c[nH]cn1)NC(=O)C(C)(C)NC(=O)[C@H](CC(C)C)NC(=O)[C@H](Cc1ccccc1)NC(=O)[C@H](CC(N)=O)NC(=O)[C@H](C)NC(=O)[C@H](CC(C)C)NC(=O)[C@H](CCCNC(=N)N)NC(=O)[C@H](CCC(N)=O)NC(=O)[C@@H](NC(=O)[C@H](C)NC(=O)[C@@H]1CSSC[C@H](NC(=O)[C@@H](N)CCCCNC(=O)CC[C@H](NC(=O)CCCCCCCCCCCCCCCCC(=O)O)C(=O)O)C(=O)N[C@@H](CC(N)=O)C(=O)N[C@@H]([C@@H](C)O)C(=O)N[C@@H](C)C(=O)N[C@@H]([C@@H](C)O)C(=O)N1)[C@@H](C)O)C(=O)N[C@@H](CC(C)C)C(=O)N1CCC[C@H]1C(=O)N1CCC[C@H]1C(=O)N[C@H](C(=O)N[C@@H](CC(N)=O)C(=O)N[C@H](C(=O)NCC(=O)N[C@@H](CO)C(=O)N[C@@H](CC(N)=O)C(=O)N[C@H](C(=O)N[C@@H](Cc1ccc(O)cc1)C(N)=O)[C@@H](C)O)C(C)C)[C@@H](C)O` [Peptide 150, K(γE-C18diacid)[CNTATC]ATQRLANFL(Aib)HSS(Dab)NFGPILPPTNVGSNTY-amide] (H-K([γGlu-C18 diacid])CNTATCATQRLANFL[Aib]HSS[Dab]NFGPILPPTNVGSNTY-NH2; disulfide 2-7; N-terminus assumed) were, in that order, 4180 pM, 23.4 and 179 pM.
The like results for `CC[C@H](C)[C@H](NC(=O)[C@@H]1CCCN1C(=O)CNC(=O)[C@H](Cc1ccccc1)NC(=O)[C@H](CC(N)=O)NC(=O)C(C)(C)NC(=O)[C@H](CO)NC(=O)[C@H](CO)NC(=O)[C@H](Cc1c[nH]cn1)NC(=O)[C@@H](NC(=O)[C@H](CC(C)C)NC(=O)[C@H](Cc1ccccc1)NC(=O)[C@H](CC(N)=O)NC(=O)[C@H](C)NC(=O)[C@H](CC(C)C)NC(=O)[C@H](CCCNC(=N)N)NC(=O)[C@H](CCC(N)=O)NC(=O)[C@@H](NC(=O)[C@H](C)NC(=O)[C@@H]1CSSC[C@H](NC(=O)[C@@H](N)CCCCNC(=O)CC[C@H](NC(=O)CC[C@H](NC(=O)CCCCCCCCCCCCCCCCC(=O)O)C(=O)O)C(=O)O)C(=O)N[C@@H](CC(N)=O)C(=O)N[C@@H]([C@@H](C)O)C(=O)N[C@@H](C)C(=O)N[C@@H]([C@@H](C)O)C(=O)N1)[C@@H](C)O)C(C)C)C(=O)N[C@@H](CC(C)C)C(=O)N1CCC[C@H]1C(=O)N1CCC[C@H]1C(=O)N[C@H](C(=O)N[C@@H](CCC(=O)O)C(=O)N[C@H](C(=O)NCC(=O)N[C@@H](CO)C(=O)N[C@@H](CC(N)=O)C(=O)N[C@H](C(=O)N[C@@H](Cc1ccc(O)cc1)C(N)=O)[C@@H](C)O)C(C)C)[C@@H](C)O` [Peptide 49, K(γE-γE-C18diacid)[CNTATC]ATQRLANFLVHSS(Aib)NFGPILPPTEVGSNTY-amide] (H-K([γGlu-γGlu-C18 diacid])CNTATCATQRLANFLVHSS[Aib]NFGPILPPTEVGSNTY-NH2; disulfide 2-7) were, in that order, 4140 pM, 12 and 334 pM.

A word on the EC50: it is the concentration giving half of the maximal effect.
